Measurements published in patent publication US8008354B2, “Death receptor sensitizing compounds and methods of use therefor” (Burnham Institute for Medical Research, priority 2006, dated 2011).
Counter-ions that a name gives are not always drawn.

What was measured:
PPC-1 cells [1] = assay: Apoptosis of PPC-1 cells transfected with CrmA or Bcl-XL, treated with CH-11 and compound; type: cell-based, human; settings: for protection by Bcl-XL against apoptosis: PPC-1 cells transfected with Bcl-XL; for protection by CrmA against apoptosis induced by CH-11 plus compound: PPC-1 cells transfected with CrmA
Method: FIG. 6. Characterization of the mechanism of FAS-sensitizing compounds. (A) PPC-1 cells (1×10^5) were seeded in 24 well plates. The next day, cells were treated with CH-11 antibody (100 ng/mL) and 30 μM 6094911, 5809354, or 5569100 with (square) or without (diamond) caspase inhibitor z-VAD-fmk (100 μM). Apoptosis was measured 24 hours later by Annexin V staining, expressing data as percentage of Annexin V-negative (“viable”) cells (mean+SD) (n=3). (B) PPC-1 cells (2×10^5) were seeded in 6 well plates and co-transfected with plasmids encoding Bcl-XL, Crm A, or empty vector along with a green fluorescent protein (GFP) encoding plasmid to identify successfully transfected cells. After 48 hours, cells were treated with CH-11 antibody (100 ng/mL) and 6094911 (30 μM), 5809354 (30 μM), or 5569100 (15 μM). As a positive control, transfected cells were treated with staurosporine (0.5 μM) (STS). Apoptotic cells were identified by morphological assessment of the GFP-positive cells, and data were expressed as the percentage of nonapoptotic (“viable”) cells (mean+SD) (n=3).
Cell transfections. PPC-1 cells (2×10^5) were seeded in 35 mm diameter plates in RPMI with 10% FCS. The next day the cells were co-transfected using Lipofectamine Plus (Invitrogen, Carlsbad, Calif.) with 0.5 μg GFP-encoding plasmid pEGFP (Invitrogen) in combination with 1.5 μg of plasmids encoding Bcl-XL, the viral caspase-8 inhibitor Crm A, or empty vector. At 2 days post-transfection, cells were incubated with various concentrations of CH-11 antibody and the test compounds for 24 hours, then the percentage apoptosis was scored by UV-microscopic analysis of the GFP-positive cells, counting a minimum of 200 cells. Cells that had rounded up and were floating in the medium were counted as non-viable, while cells that remained adherent to the plate with normal morphological features were counted as viable.
To further address the specificity of the compounds for the extrinsic pathway, the effects of selective apoptosis inhibitory genes were examined. For these experiments, PPC-1 cells were transfected with plasmids encoding CrmA, a viral protein that blocks the extrinsic pathway by inhibiting caspase-8 (Zhou et al., 1997) or encoding Bcl-xL, a mitochondria-targeting protein that blocks the intrinsic pathway by inhibiting release of cytochrome c (Boise et al., 1993; Kharbanda et al., 1997). After transfection, cells were treated with CH-11 antibody and compounds 6094911, 5809354, or […] scoring the percentage of apoptotic cells among the successfully transfected cells as determined by co-transfection of a GFP-marker plasmid.

PPC-1 cells [2] = assay: Nuclear fragmentation of suspension PPC-1 cells overexpressing FLIP, CrmA or BclXL; type: cell-based, human; settings: 5809354 60 μM or staurosporine 0.5 μM, thirty hours
Method: FIG. 15. 5809354 sensitizes cells to anoikis through a caspase 8 dependent mechanism. (A) PPC-1 cells (5×10^4) were cultured under suspension conditions overnight and then treated with 5809354 in the presence or absence of the pan-caspase inhibitor z-VAD-fink (100 μM). Thirty hours after incubation, anoikis was determined by flow cytometry to detect cell surface annexin V expression and PI uptake. Data represents the mean±SEM percent of viable cells or colonies compared to untreated controls. (B) PPC-1 cells (5×10^4) were cultured in suspension conditions overnight and then treated with 5809354 (60 μM). At increasing times after treatment, caspase activation was detected with FITC-labeled peptides that bind preferentially and irreversibly to caspase 3/7, 8, or 9. Caspase activation was monitored by flow cytometry to quantify the percentage of fluorescently labeled cells. […] At increasing times after incubation, total cellular protein was isolated and analyzed by SDS-PAGE immunoblotting using anti-caspase 8 and anti-actin antibodies. * indicates cleaved caspase 8. […] Thirty hours after incubation, apoptosis was measured by cell surface annexin V expression and PI uptake. […] Ten hours after incubation, cell viability was measured using the MTS assay. […] EGFP expression and nuclear morphology were analyzed by fluorescence microscopy. […]

Row | Compound | protection by Bcl-XL against apoptosis (PPC-1 cells [1]) | protection by CrmA against apoptosis induced by CH-11 plus compound (PPC-1 cells [1]) | effect of overexpressed FLIP, CrmA or BclXL on anoikis (PPC-1 cells [2])
1 | 4-(4-chloro-2-methylphenoxy)-N-hydroxybutanamide [compound 5809354] | no protective effect | almost completely protected | attenuated 5809354-mediated anoikis
2 | CCn1c(=N)n(CC(=O)c2cc(C(C)(C)C)c(O)c(C(C)(C)C)c2)c2ccccc21 [compound 5569100, 1-(3,5-di-tert-butyl-4-hydroxyphenyl)-2-(3-ethyl-2-imino-2,3-dihydro-1H-benzo[d]imidazol-1-yl)ethanone hydrobromide] | no protective effect | almost completely protected | –
3 | CC(=O)CC(=O)Nc1ccc(Cl)c(C(F)(F)F)c1 [compound 6094911, N-[4-chloro-3-(trifluoromethyl)phenyl]-3-oxobutanamide] | no protective effect | almost completely protected | –
4 | CN[C@@H]1C[C@H]2O[C@@](C)([C@@H]1OC)n1c3ccccc3c3c4c(c5c6ccccc6n2c5c31)C(=O)NC4 [staurosporine, reference compound] | Bcl-XL but not Crm A protected | – | overexpression of BclXL, but not CrmA, protected
